pEC50: −log10 of the molar value. Entries after “also recorded” stand apart in the source; their conditions may differ. Like-named read-outs stand apart in the source and are kept apart here.

The values that follow come from patent US20070077583A1, “Alpha enolase-directed diagnostics and therapeutics for cancer and chemotherapeutic drug resistance” (Aurelium BioPharma, Inc., priority 2005, published 2007).

The test system of one data set is A549 cells. In words: MTT cytotoxicity assay, A549 cells transfected with α-enolase siRNA.
The next data set concerns H460 cells. Briefly: MTT cytotoxicity assay, H460 cells transfected with α-enolase siRNA. The format is cell-based, human. The procedure: To establish the effectiveness of α-enolase silencing on other cancer cell types, H460 non-small cell lung cancer cells were challenged with a chemotherapeutic drug, MTT cytotoxicity assays were carried out and survival curves plotted as shown in FIG. 17.
For orientation: Formazan colour is commonly taken as a measure of viable cells.

In the next data set the test system is MCF-7 cells. In words: MTT cytotoxicity assay, MCF-7 cells transfected with α-enolase siRNA. The format is cell-based, human. The protocol: For a typical siRNA transfection, 1 nmole of the annealed siRNA duplex was mixed with 1.4 ml of Opti-MEM reagent (Invitrogen). In another tube, […] of Oligofectamine reagent (Invitrogen, Carlsbad, Calif.) is mixed with […] of Opti-MEM. The two solutions are combined and mixed gently by inversion and incubated for 20 min. at RT. The resulting solution is added to the cultured cells drop by drop in a 10 cm dish (cells are approximately 40-50% confluent). The next day the transfected cells were trypsinized and seeded in 6 or 96-well plates and further incubated for the indicated amount of time (assay dependent) before further analysis.
To evaluate the effect of α-enolase depletion on the chemosensitivity of cells to cytotoxic agents, MTT assays were performed in breast adenocarcinoma MCF-7 cells transfected with α-enolase specific siRNAs. […] The predicted EC50 values (the effective dose of a compound responsible for a positive effect half-way between baseline and maximum net impact) for the α-enolase-depleted cells are shown in Table 3. Similarly, results using other chemotherapeutic drugs are also shown in the table indicating the sensitivity of breast cancer tissue to α-enolase depletion.

The test system of another data set is MDA-435 cells. In words: cells. The class given is cell-based, human. The following applies: MDA-435 cells; for pEC50: Homo sapiens, MDA435. The protocol:
Similar tests utilizing α-enolase siRNA were performed on MDA-435 breast adenocarcinoma cells. Chemosensitivity to various drugs was determined for the MDA-435 cells as described above.

Another data set relates to PC-3 cells. In words: MTT cytotoxicity assay, PC-3 cells transfected with α-enolase siRNA. The following applies: for pEC50: Homo sapiens. The format is cell-based.
The subject of the next data set is CaOV3 cells. Briefly: MTT cytotoxicity assay, CaOV3 cells transfected with α-enolase RNAi. The conditions noted are these: for pEC50: Homo sapiens, 72 hours post transfection. The format is cell-based, human. The source says: These observations were expanded by targeting α-enolase in the ovarian cancer cell line, CaOV3.
A further data set concerns α-enolase. Briefly: Western blot of α-enolase protein expression after siRNA transfection. The format is cell-based, human. The conditions noted are these: MCF-7 cells. The protocol:
Western blot analysis utilizing anti-α-enolase antibodies was performed on MOLT4 cell extracts fractionated on SDS-PAGE (FIG. 3). Cells extract were prepared according to the protocol detailed in Example 1. […] Resolved proteins were electrophoretically transferred onto nitrocellulose membranes (Hybond, Amercham Pharmacia Biotech) for 1 hour. […] After blocking the membranes with 5% non-fat milk in 1×PBS overnight at 4° C., all antibody-binding reactions were performed in 5% non-fat milk in 1×PBS for 2 hours at room temperature for primary antibodies and for 1 hour for secondary antibodies coupled to HRP. The signal was detected by the Supersignal west Pico chemiluminescent substrate (Pierce, Rockford, Ill., USA). Two polyclonal antibodies against α-enolase were used: a goat antibody against human α-enolase (Santa Cruz Biotechology, Inc., Santa Cruz, Calif.); rabbit polyclonal antibody against human α-enolase (NNE) (MorphoSys AG, Munich, Del.). Membranes were subsequently blotted with anti-GAPDH (Novus Biologicals, Inc., Littleton, Colo.) or anti-prohibitin mouse monoclonal antibody (Lab Vision Corp., Fremont, Calif.) as controls for protein loading. To establish the importance of α-enolase to the expression of the drug-resistant phenotype in cell lines, α-enolase expression was silenced using RNAi. Briefly, the following siRNA duplexes targeting the human α-enolase mRNA were designed and purchased either from Ambion (Austin, Tex.) or Invitrogen (Carlsbad, Calif.). […] [NT] ID NO: 2) targeting the mRNA sequence corresponding to nucleotides […] from the start of the transcript (Ref Seq ID number: NM-001428). […] In another tube, […] of Oligofectamine reagent (Invitrogen, Carlsbad, Calif.) is mixed with […] of Opti-MEM. The two solutions are combined and mixed gently by inversion and incubated for 20 min. at RT. […] The next day the transfected cells were trypsinized and seeded in 6 or 96-well plates and further incubated for the indicated amount of time (assay dependent) before further analysis.
(In general: A western blot detects proteins with antibodies after separation by electrophoresis.)

The mark [1] stands for this setting: control, read-out: Control (EC50).
Where [2] appears, read: α-enolase specific siRNA, read-out: α-Enolase (EC50).
[3] abbreviates: Homo sapiens, A549, read-out: Control (EC50).
Setting [4] is: Homo sapiens, A549, read-out: α-Enolase (EC50).
The mark [5] stands for this setting: Eno-1 siRNA, read-out: Eno-1 (EC50).
Where [6] appears, read: Eno-1 stealth siRNA, read-out: Eno-1 ST (EC50).
Where [7] appears, read: control siRNA, read-out: Control (EC50).
The mark [8] stands for this setting: mock transfection, read-out: Mock (EC50).
The mark [9] stands for this setting: Homo sapiens, NCI-H460, control, read-out: Control (EC50).
[10] abbreviates: Homo sapiens, NCI-H460, α-enolase specific siRNA, read-out: α-Enolase (EC50).
Where [11] appears, read: Homo sapiens, MCF7, MCF-7 cells, control siRNA, 72 hrs drug, read-out: Control (EC50).
The mark [12] stands for this setting: Homo sapiens, MCF7, MCF-7 cells, α-enolase specific siRNA, read-out: α-Enolase (EC50).

Method for A549 cells: Small interfering RNA transfected cells were seeded in triplicate into 96-well plates at 5×10^3 cells/well 48 hrs post-transfection. The cells were incubated for an additional 16-24 hrs before they were exposed to increasing concentrations of cytotoxic drugs. […] Appropriate dilutions were made in the respective media for each cell line. Following addition of drugs, incubation was continued for an additional 72 hrs. Twenty-five ml of MTT dye (5 mg/ml) were added into each well and the plate was further incubated at 37° C. for 4 hrs. The dye was solubilized with 10% Triton X-100, 0.01 N HCl and further incubated at 37° C. in the dark for 30 min. Cell viability was determined by measure of absorption at 570 nm in a Wallac multiwell plate reader (PerkinElmer, Inc., Boston, Mass.). The averages of triplicate wells were plotted using the Prism software (GraphPad Software, Inc., San Diego, Calif.).
To investigate if α-enolase is broadly involved in mediating drug resistance to microtubule targeting agents, non-small cell lung cancer cell lines A549 and H460, respectively, were transfected with α-enolase siRNA and enolase expression and viability were assessed.

In general, pEC50 refers to the EC50 on a negative log10 scale, so that one unit is a factor of ten. Regarding `N.N.[Cl][Pt][Cl]` [Cisplatinum], the pEC50 in the data set on A549 cells (read-out: Control (EC50), A549 cells, control siRNA) is 3.49; with A549 cells (read-out: α-Enolase (EC50), A549 cells, α-enolase specific siRNA), 3.66; with H460 cells (setting [1]) it was 7.35; in the data set on H460 cells (setting [2]), 7.62; in the data set on MCF-7 cells (MCF-7 cells, control siRNA, 72 hrs drug, read-out: Control (EC50)) it was 3.93; in the data set with MCF-7 cells (MCF-7 cells, α-enolase specific siRNA, read-out: α-Enolase (EC50)) it was 4.04. In the data set on H460 cells, the “viability of α-enolase-silenced cells under drug treatment vs control cells” value (“viability … vs control cells” for short) was “decreased the viability”.
With `CC(=O)O[C@@]12CO[C@@H]1C[C@H](O)[C@@]1(C)C(=O)[C@H](O)C3=C(C)[C@@H](OC(=O)[C@H](O)[C@@H](NC(=O)OC(C)(C)C)c4ccccc4)C[C@@](O)([C@@H](OC(=O)c4ccccc4)[C@H]21)C3(C)C` [Docetaxel], in the data set on A549 cells (A549 cells), the “chemosensitivity of α-enolase-silenced cells (words)” value (shortened to “chemosensitivity”) was “enhanced chemosensitivity; also recorded: significant shifts in their chemosensitivities”. The negative logarithm of the EC50 (pEC50) was 8.15 in the data set on A549 cells (setting [3]); 9.46 in the data set on A549 cells (setting [4]); 9.74 in the data set on MDA-435 cells (setting [5]); 9.91 with MDA-435 cells (setting [6]); 9.19 with MDA-435 cells (setting [7]); 9.65 in the data set on MDA-435 cells (setting [8]). In addition, the pEC50 in the data set on H460 cells (setting [9]) is 8.86; with H460 cells (setting [10]), 9.18; in the data set on MCF-7 cells (setting [11]), 7.13; with MCF-7 cells (setting [12]) it was 7.44; in the data set with PC-3 cells (setting [1]) it was 9.46; in the data set on PC-3 cells (setting [2]) it was 10.26. Besides, the “sensitivity of α-enolase-silenced cells” value with MDA-435 cells is “Increases in sensitivity”. The “viability … vs control cells” value in the data set with H460 cells was “decreased the viability”.
Turning to `COc1cccc2c1C(=O)c1c(O)c3c(c(O)c1C2=O)C[C@@](O)(C(=O)CO)C[C@@H]3O[C@H]1C[C@H](N)[C@H](O)[C@H](C)O1` [Doxorubicin], the pEC50 with A549 cells (setting [3]) is 6.54; in the data set on A549 cells (setting [4]), 6.53; with H460 cells (setting [9]) it was 6.92; in the data set with H460 cells (setting [10]), 7.52; in the data set on MCF-7 cells (setting [11]) it was 4.04; with MCF-7 cells (setting [12]), 4.20. For the same compound, the “viability … vs control cells” value in the data set with H460 cells is “greatest decreases in viability”.
Take `COc1cc([C@@H]2c3cc4c(cc3[C@@H](O[C@@H]3O[C@@H]5CO[C@@H](C)O[C@H]5[C@H](O)[C@H]3O)[C@H]3COC(=O)[C@H]23)OCO4)cc(OC)c1O` [Etoposide]: the “chemosensitivity” value with A549 cells (A549 cells) was “increased sensitivity”. Moreover, the pEC50 with A549 cells (setting [3]) is 4.69; in the data set with A549 cells (setting [4]) it was 5.00; with H460 cells (setting [9]) it was 5.27; in the data set on H460 cells (setting [10]), 5.72; in the data set on MCF-7 cells (setting [11]) it was 4.79; with MCF-7 cells (setting [12]), 4.57. Further, the “viability … vs control cells” value in the data set on H460 cells is “decreased the viability”.
For the compound `N[C@@H](Cc1ccc(N(CCCl)CCCl)cc1)C(=O)O` [Melphalan], the pEC50 in the data set on MCF-7 cells (Homo sapiens, MCF7, 72 h, read-out: Control (EC50)) was 4.83; in the data set on MCF-7 cells (Homo sapiens, MCF7, read-out: α-Enolase (EC50)) it was 4.94.
In the case of `O=C1c2c(O)ccc(O)c2C(=O)c2c(NCCNCCO)ccc(NCCNCCO)c21` [Mitoxantrone], the “chemosensitivity” value in the data set on A549 cells (A549 cells) was “increased sensitivity”. The negative logarithm of the EC50 (pEC50) with A549 cells (setting [3]) was 6.87; with A549 cells (setting [4]), 7.05; in the data set on H460 cells (setting [9]), 6.65; with H460 cells (setting [10]), 7.15; in the data set with MCF-7 cells (setting [11]), 5.06; with MCF-7 cells (setting [12]) it was 5.11. Also, the “viability … vs control cells” value in the data set with H460 cells is reported as “decreased the viability”.
On to `CC[C@]1(O)C[C@@H]2CN(CCc3c([nH]c4ccccc34)[C@@](C(=O)OC)(c3cc4c(cc3OC)N(C)[C@H]3[C@@](O)(C(=O)OC)[C@H](OC(C)=O)[C@]5(CC)C=CCN6CC[C@]43[C@@H]65)C2)C1` [Vinblastin], for which the “chemosensitivity” value in the data set with A549 cells (A549 cells) is “enhanced chemosensitivity”; in the data set with A549 cells (A549 cells, listed as vinblastine), “significant shifts in their chemosensitivities”. The pEC50 was 8.62 with A549 cells (setting [3]); 10.12 in the data set on A549 cells (setting [4]); 9.06 in the data set with MDA-435 cells (setting [5]); 9.04 in the data set with MDA-435 cells (setting [6]); 9.15 with MDA-435 cells (setting [7]); 8.98 with MDA-435 cells (setting [8]). Also, the negative-log EC50 (pEC50) in the data set with CaOV3 cells (Caov-3, control, read-out: Control (EC50)) was 10.66; in the data set with CaOV3 cells (Caov-3, α-enolase specific RNAi, read-out: α-Enolase (EC50)) it was 11.46; in the data set with H460 cells (setting [9]), 8.51; in the data set on H460 cells (setting [10]), 8.81; in the data set with PC-3 cells (setting [1]) it was 10.28; in the data set with PC-3 cells (setting [2]), 11.26. Also, the “decrease of chemotherapeutic drug resistance by α-enolase-directed siRNA vs mock siRNA” value in the data set with CaOV3 cells was determined as 8 fold. Further, in the data set with H460 cells, the “viability … vs control cells” value is “decreased the viability”. Besides, the “combination with enolase siRNA in cell killing” value with PC-3 cells (listed as vinblastine) was “synergistic; also recorded: augment PC-3 cell killing”.
Take “VEGF-directed siRNA: chemically modified Stealth siRNA duplex targeting VEGF, SEQ ID NO: 8 and 9 (chain 1 ACAAAUGUGAAUGCAGACCAAAGAA; chain 2 UUCUUUGGUCUGCAUUCACAUUUGU; chemically modified Stealth duplex, pattern not given here)”: in the data set on α-enolase, the “decrease of α-enolase expression” value is listed as approximately 100%.
